Reference: patent US8124793B2, “Derivatives of ethylene methanedisulfonate as cancer chemotherapeutic agents” (priority 2007, dated 2012)

What was measured:
Assay type in all cases: cell-based
HCT-15 = assay: NCI screen, growth of human tumor cells: Colon Cancer HCT-15; settings: HCT-15 (Colon Cancer), 10^−4 molar
Experimental: (§1) In the NCI screening process, each compound was tested and described by a minimum of 60 data points. The test data include, but are not limited to the type of cancer, the molar concentration used in the screen, and the percent growth of the cancer. In some cases, NMR and elemental analysis were used for structural assignment.

HS 578T = assay: NCI screen, growth of human tumor cells: Breast Cancer HS 578T; settings: HS 578T (Breast Cancer), 10^−4 molar
Experimental: as §1

RPMI-8226 = assay: NCI screen, growth of human tumor cells: Leukemia RPMI-8226; settings: RPMI-8226 (Leukemia), 10^−4 molar
Experimental: as §1

ACHN = assay: NCI screen, growth of human tumor cells: Renal Cancer ACHN; settings: ACHN (Renal Cancer), 10^−4 molar
Experimental: as §1

SF-295 = assay: NCI screen, growth of human tumor cells: CNS Cancer SF-295; settings: SF-295 (CNS Cancer), 10^−4 molar
Experimental: as §1

HL-60 (TB) = assay: NCI screen, growth of human tumor cells: Leukemia HL-60 (TB); settings: HL-60 (TB) (Leukemia), 10^−4 molar
Experimental: as §1

PC-3 = assay: NCI screen, growth of human tumor cells: Prostate Cancer PC-3; settings: PC-3 (Prostate Cancer), 10^−4 molar
Experimental: as §1

K562 = assay: NCI screen, growth of human tumor cells: Leukemia K562; settings: K562 (Leukemia), 10^−4 molar
Experimental: as §1

UACC-62 = assay: NCI screen, growth of human tumor cells: Melanoma UACC-62; settings: UACC-62, 10^−4 molar
Experimental: as §1

UO-31 = assay: NCI screen, growth of human tumor cells: Renal Cancer UO-31; settings: UO-31 (Renal Cancer), 10^−4 molar
Experimental: as §1

NCI-H23 = assay: NCI screen, growth of human tumor cells: Non-Small Cell Lung NCI-H23; settings: NCI-H23 (Non-Small Cell Lung), 10^−4 molar
Experimental: as §1

DU-145 = assay: NCI screen, growth of human tumor cells: Prostate Cancer DU-145; settings: DU-145 (Prostate Cancer), 10^−4 molar
Experimental: as §1

MDA-MB-231/ATCC = assay: NCI screen, growth of human tumor cells: Breast Cancer MDA-MB-231/ATCC; settings: MDA-MB-231/ATCC (Breast Cancer), 10^−4 molar
Experimental: as §1

SR = assay: NCI screen, growth of human tumor cells: Leukemia SR; settings: SR (Leukemia), 10^−4 molar
Experimental: as §1

human cancer cells = assay: NCI screen summary over the cancers tested (negative growth of human cancer cells); settings: 10^−4 M conc.; cancers with negative growth / cancers tested
Experimental: as §1
The derivatives in the tables are grouped using the same category as in the tables 1-6.

BT-549 = assay: NCI screen, growth of human tumor cells: Breast Cancer BT-549; settings: BT-549 (Breast Cancer), 10^−4 molar
Experimental: as §1

MDA-MB-435 = assay: NCI screen, growth of human tumor cells: Breast Cancer MDA-MB-435; settings: MDA-MB-435, 10^−4 molar
Experimental: as §1

CAKI-1 = assay: NCI screen, growth of human tumor cells: Renal Cancer CAKI-1; settings: CAKI-1 (Renal Cancer), 10^−4 molar
Experimental: as §1

U-251 = assay: NCI screen, growth of human tumor cells: CNS Cancer U-251; settings: U-251 (CNS Cancer), 10^−4 molar
Experimental: as §1

SW620 = assay: NCI screen, growth of human tumor cells: Colon Cancer SW620; settings: SW620 (Colon Cancer), 10^−4 molar
Experimental: as §1

SF-539 = assay: NCI screen, growth of human tumor cells: CNS Cancer SF-539; settings: SF-539 (CNS Cancer), 10^−4 molar
Experimental: as §1

NCI-H460 = assay: NCI screen, growth of human tumor cells: Non-Small Cell Lung NCI-H460; settings: NCI-H460 (Non-Small Cell Lung), 10^−4 molar
Experimental: as §1

SN12C = assay: NCI screen, growth of human tumor cells: Renal Cancer SN12C; settings: SN12C (Renal Cancer), 10^−4 molar
Experimental: as §1

SF-268 = assay: NCI screen, growth of human tumor cells: CNS Cancer SF-268; settings: SF-268 (CNS Cancer), 10^−4 molar
Experimental: as §1

LOXIMVI = assay: NCI screen, growth of human tumor cells: Melanoma LOXIMVI; settings: LOXIMVI (Melanoma), 10^−4 molar
Experimental: as §1

M14 = assay: NCI screen, growth of human tumor cells: Melanoma M14; settings: M14 (Melanoma), 10^−4 molar
Experimental: as §1

RXF-393 = assay: NCI screen, growth of human tumor cells: Renal Cancer RXF-393; settings: RXF-393 (Renal Cancer), 10^−4 molar
Experimental: as §1

HOP-92 = assay: NCI screen, growth of human tumor cells: Non-Small Cell Lung HOP-92; settings: HOP-92 (Non-Small Cell Lung), 10^−4 molar
Experimental: as §1

UACC-257 = assay: NCI screen, growth of human tumor cells: Melanoma UACC-257; settings: UACC-257, 10^−4 molar
Experimental: as §1

MCF7/ADR-RES = assay: NCI screen, growth of human tumor cells: Breast Cancer MCF7/ADR-RES; settings: MCF7/ADR-RES (Breast Cancer), 10^−4 molar
Experimental: as §1

OVCAR-4 = assay: NCI screen, growth of human tumor cells: Ovarian Cancer OVCAR-4; settings: OVCAR-4 (Ovarian Cancer), 10^−4 molar
Experimental: as §1

OVCAR-8 = assay: NCI screen, growth of human tumor cells: Ovarian Cancer OVCAR-8; settings: OVCAR-8 (Ovarian Cancer), 10^−4 molar
Experimental: as §1

SK-MEL-28 = assay: NCI screen, growth of human tumor cells: Melanoma SK-MEL-28; settings: SK-MEL-28 (Melanoma), 10^−4 molar
Experimental: as §1

MCF 7 = assay: NCI screen, growth of human tumor cells: Breast Cancer MCF 7; settings: MCF 7 (Breast Cancer), 10^−4 molar
Experimental: as §1

SK-MEL-5 = assay: NCI screen, growth of human tumor cells: Melanoma SK-MEL-5; settings: SK-MEL-5 (Melanoma), 10^−4 molar
Experimental: as §1

OVCAR-3 = assay: NCI screen, growth of human tumor cells: Ovarian Cancer OVCAR-3; settings: OVCAR-3 (Ovarian Cancer), 10^−4 molar
Experimental: as §1

HOP-62 = assay: NCI screen, growth of human tumor cells: Non-Small Cell Lung HOP-62; settings: HOP-62 (Non-Small Cell Lung), 10^−4 molar
Experimental: as §1

HCT-116 = assay: NCI screen, growth of human tumor cells: Colon Cancer HCT-116; settings: HCT-116, 10^−4 molar
Experimental: as §1

With O=C1C(Cl)=C(C2S(=O)(=O)OCCOS2(=O)=O)C(=O)c2ccccc21 [NSC 731260, ethylene 3-chloro-1,4-naphtho-2-quinoylmethanedisulfonate] as the compound, how does the “percent of growth of human tumor cells” value (HCT-15) read?
The value was 17%.

What about the “percent of growth of human tumor cells” value (HS 578T) of the same compound?
The value was 8%.

What about the “percent of growth of human tumor cells” value (RPMI-8226) of the same compound?
The value was −36%.

And the “percent of growth of human tumor cells” value (ACHN)?
Its value is −12%.

And the “percent of growth of human tumor cells” value (SF-295)?
Its value is −46%.

What about the “percent of growth of human tumor cells” value (HL-60 (TB)) of the same compound?
Its value is 13%.

What about the “percent of growth of human tumor cells” value (PC-3) of the same compound?
The value was 9%.

What about the “percent of growth of human tumor cells” value (K562) of the same compound?
The value was 20%.

And the “% Growth” value (UACC-62)?
Its value is −86%.

And the “percent of growth of human tumor cells” value (UO-31)?
Its value is 30%.

What about the “percent of growth of human tumor cells” value (NCI-H23) of the same compound?
The value was −54%.

What about the “percent of growth of human tumor cells” value (DU-145) of the same compound?
Its value is 12%.

And the “percent of growth of human tumor cells” value (MDA-MB-231/ATCC)?
Its value is −15%.

And the “percent of growth of human tumor cells” value (SR)?
Its value is 15%.

And the “Percentage of cancers showing negative growth cancers tested” value (human cancer cells)?
The value was 10^−4 M conc. = 16/37 = 43%.

And the “percent of growth of human tumor cells” value (BT-549)?
The value was −32%.

What about the “% Growth” value (MDA-MB-435) of the same compound?
The value was −79%.

And the “percent of growth of human tumor cells” value (CAKI-1)?
The value was 18%.

And the “percent of growth of human tumor cells” value (U-251)?
The value was 2%.

What about the “percent of growth of human tumor cells” value (SW620) of the same compound?
Its value is 1%.

What about the “percent of growth of human tumor cells” value (SF-539) of the same compound?
Its value is 1%.

What about the “percent of growth of human tumor cells” value (NCI-H460) of the same compound?
Its value is 4%.

What about the “percent of growth of human tumor cells” value (SN12C) of the same compound?
The value was −12%.

What about the “percent of growth of human tumor cells” value (SF-268) of the same compound?
The value was 10%.

And the “percent of growth of human tumor cells” value (LOXIMVI)?
The value was −43%.

What about the “percent of growth of human tumor cells” value (M14) of the same compound?
The value was −58%.

And the “percent of growth of human tumor cells” value (RXF-393)?
The value was 28%.

What about the “percent of growth of human tumor cells” value (HOP-92) of the same compound?
The value was −3%.

What about the “% Growth” value (UACC-257) of the same compound?
Its value is −74%.

And the “percent of growth of human tumor cells” value (MCF7/ADR-RES)?
Its value is 25%.

And the “percent of growth of human tumor cells” value (OVCAR-4)?
Its value is 11%.

And the “percent of growth of human tumor cells” value (OVCAR-8)?
Its value is 18%.

And the “percent of growth of human tumor cells” value (SK-MEL-28)?
The value was −5%.

And the “percent of growth of human tumor cells” value (MCF 7)?
Its value is 6%.

What about the “percent of growth of human tumor cells” value (SK-MEL-5) of the same compound?
Its value is −54%.

And the “percent of growth of human tumor cells” value (OVCAR-3)?
The value was 28%.

And the “percent of growth of human tumor cells” value (HOP-62)?
Its value is −56%.

And the “% Growth” value (HCT-116)?
Its value is −89%.
